One series has as its target Cyclophilin A (CypA) (Homo sapiens, UniProt P62937). In words: Fluorescence polarization cyclophilin A binding assay.
Series [1] relates to mitochondrial permeability transition pore (mPTP). In words: Calcium retention capacity (CRC) assay in isolated liver mitochondria. Conditions: Table S4 / Fig. S2; rat liver mitochondria; 500 nM; (Treated-NonTreated)/NonTreated)*100. It is filed as biochemical, rat.
Series [2] is described as follows: Pharmacokinetic study, plasma and brain levels by LC-MS/MS.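 As to all read-outs here: ABH mice, four per group, dosed intraperitoneally, plasma and brain taken at set times after euthanasia, drug levels quantified by LC-MS/MS.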 Conditions: mice; for level at 1 h / level at 4 h: ABH, mouse, ip.
Protocol: The remaining five compounds were evaluated for plasma and brain levels in a pharmacokinetic experiment in mice.
Pharmacokinetic analysis.
(Cyprotex UK) using LCMSMS.
A further series concerns the target hERG (Homo sapiens, UniProt Q12809). In words: hERG inhibition. It is filed as biochemical. Background: Block of hERG is tested as a sign of cardiac risk.
The next series concerns the target CypD (Homo sapiens, UniProt P30405). In words: Fluorescence polarization cyclophilin D binding assay. In general terms: Polarisation of emitted light reports the rotation of a fluorescent probe.
The mark [3] stands for this setting: Table S3, 4-aza substituted quinolinium salts, fluorescence polarization, read-out: Ki (nM) CypA.
Setting [4] is: Table S2, 4-oxa substituted and O-linked quinolinium salts, fluorescence polarization, read-out: Ki (nM), Cyclophilin A binding affinity.

Molecules are shown by their SMILES. Where two headings read alike, the source gives them in different places.

Chain of Cyclophilin A (CypA) (P62937 whole entry): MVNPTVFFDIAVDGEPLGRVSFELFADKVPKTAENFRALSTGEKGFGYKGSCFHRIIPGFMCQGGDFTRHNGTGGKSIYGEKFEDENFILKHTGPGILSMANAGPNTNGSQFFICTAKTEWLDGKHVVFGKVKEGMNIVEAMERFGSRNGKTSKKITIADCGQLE
Chain of CypD (P30405 30-207): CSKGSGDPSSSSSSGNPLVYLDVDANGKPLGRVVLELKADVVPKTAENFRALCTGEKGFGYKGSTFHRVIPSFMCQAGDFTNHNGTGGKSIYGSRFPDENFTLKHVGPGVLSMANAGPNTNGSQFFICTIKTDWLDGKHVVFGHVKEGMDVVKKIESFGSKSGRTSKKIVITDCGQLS
Chain of hERG (Q12809 whole entry): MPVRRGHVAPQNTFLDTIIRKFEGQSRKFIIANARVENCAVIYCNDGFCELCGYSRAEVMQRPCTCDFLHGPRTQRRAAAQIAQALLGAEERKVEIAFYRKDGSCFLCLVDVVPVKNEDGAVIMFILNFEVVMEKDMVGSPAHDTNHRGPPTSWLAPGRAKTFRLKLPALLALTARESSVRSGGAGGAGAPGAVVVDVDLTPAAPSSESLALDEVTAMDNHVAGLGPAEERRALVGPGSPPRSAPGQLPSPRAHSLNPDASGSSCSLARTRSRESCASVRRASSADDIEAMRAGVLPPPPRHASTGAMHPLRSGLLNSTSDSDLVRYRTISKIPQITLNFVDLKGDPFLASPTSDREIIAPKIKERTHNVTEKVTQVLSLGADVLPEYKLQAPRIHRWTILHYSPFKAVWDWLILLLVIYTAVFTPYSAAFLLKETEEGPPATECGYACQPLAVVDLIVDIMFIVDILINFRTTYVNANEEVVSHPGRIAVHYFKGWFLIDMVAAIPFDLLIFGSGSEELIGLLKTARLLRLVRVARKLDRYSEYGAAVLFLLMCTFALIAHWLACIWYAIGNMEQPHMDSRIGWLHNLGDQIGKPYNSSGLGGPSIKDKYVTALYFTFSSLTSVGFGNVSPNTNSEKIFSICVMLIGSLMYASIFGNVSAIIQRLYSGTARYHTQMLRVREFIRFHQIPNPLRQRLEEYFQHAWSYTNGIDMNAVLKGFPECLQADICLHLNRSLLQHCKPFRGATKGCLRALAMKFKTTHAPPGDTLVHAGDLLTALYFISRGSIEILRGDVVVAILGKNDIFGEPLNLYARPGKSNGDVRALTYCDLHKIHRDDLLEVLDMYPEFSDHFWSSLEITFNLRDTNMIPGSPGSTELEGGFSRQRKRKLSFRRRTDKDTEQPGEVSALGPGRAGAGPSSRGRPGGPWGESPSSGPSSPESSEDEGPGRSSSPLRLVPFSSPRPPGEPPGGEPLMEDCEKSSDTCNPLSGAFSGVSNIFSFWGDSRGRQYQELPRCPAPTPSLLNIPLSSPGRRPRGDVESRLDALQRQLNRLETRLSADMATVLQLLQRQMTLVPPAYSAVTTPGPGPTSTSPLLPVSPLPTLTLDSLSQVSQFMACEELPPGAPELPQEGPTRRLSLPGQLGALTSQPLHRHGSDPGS
Protocol for Cyclophilin A (CypA): (§1) This was determined using a fluorescence polarization assay ([12]).
Fluorescence Polarization assay.
(§2) Briefly, titration of a single probe concentration
measure binding affinities.
FP -probe. Enzyme, inhibitor and
(ph7.4)) supplemented with 1 mM PMSF.
Protocol for CypD: as §1
Fluorescence Polarization assay.
as §2
measure binding affinities.

A word on the Ki: it is a dissociation constant, usually derived from enzyme kinetics or from competition with a known ligand. In the case of `CC[C@@H]1NC(=O)[C@H]([C@H](O)[C@H](C)CC=CCCC[n+]2ccc(N(C)Cc3ccccc3)c3ccccc32)N(C)C(=O)[C@H](C(C)C)N(C)C(=O)[C@H](CC(C)C)N(C)C(=O)[C@H](CC(C)C)N(C)C(=O)[C@@H](C)NC(=O)[C@H](C)NC(=O)[C@H](CC(C)C)N(C)C(=O)[C@H](C(C)C)NC(=O)[C@H](CC(C)C)N(C)C(=O)CN(C)C1=O` [JP1-028], the Ki on Cyclophilin A (CypA) (setting [3]) was found to be 35 ± 3 nM.
Consider `CC[C@@H]1NC(=O)[C@H]([C@H](O)[C@H](C)CC=CCCC[n+]2ccc(NCCc3ccccc3)c3ccccc32)N(C)C(=O)[C@H](C(C)C)N(C)C(=O)[C@H](CC(C)C)N(C)C(=O)[C@H](CC(C)C)N(C)C(=O)[C@@H](C)NC(=O)[C@H](C)NC(=O)[C@H](CC(C)C)N(C)C(=O)[C@H](C(C)C)NC(=O)[C@H](CC(C)C)N(C)C(=O)CN(C)C1=O` [JP1-037H], for which the CRC inhibition % in series [1] came out at 26.53%. Besides, the inhibition constant (Ki) on Cyclophilin A (CypA) (setting [3]) amounted to 17 ± 5 nM.
On the same counts, the results for `CC[C@@H]1NC(=O)[C@H]([C@H](O)[C@H](C)CC=CCCC[n+]2ccc(N(C)CCc3ccccc3)c3ccccc32)N(C)C(=O)[C@H](C(C)C)N(C)C(=O)[C@H](CC(C)C)N(C)C(=O)[C@H](CC(C)C)N(C)C(=O)[C@@H](C)NC(=O)[C@H](C)NC(=O)[C@H](CC(C)C)N(C)C(=O)[C@H](C(C)C)NC(=O)[C@H](CC(C)C)N(C)C(=O)CN(C)C1=O` [JP1-037] are 20.61% and 4.4 ± 2 nM.
A word on the IC50: it is the concentration that inhibits the measured activity by half. High values mean weaker potency, low ones greater potency. Turning to `CC[C@@H]1NC(=O)[C@H]([C@H](O)[C@H](C)C/C=C/CCC[n+]2ccc(NCCOc3ccccc3)c3ccccc32)N(C)C(=O)[C@H](C(C)C)N(C)C(=O)[C@H](CC(C)C)N(C)C(=O)[C@H](CC(C)C)N(C)C(=O)[C@@H](C)NC(=O)[C@H](C)NC(=O)[C@H](CC(C)C)N(C)C(=O)[C@H](C(C)C)NC(=O)[C@H](CC(C)C)N(C)C(=O)CN(C)C1=O` [JP1-068], the level at 1 h came to 110 ng/mL in series [2] (brain, Brain ng/mL, 1 h) and 6410 ng/mL in series [2] (plasma, Plasma (ng/mL), 1 h). The level at 4 h in series [2] (brain, Brain ng/mL) is 76 ng/mL; in series [2] (plasma, Plasma (ng/mL)) it was 6250 ng/mL. The “Brain” value in series [2] (1 h) is on record as 110 ng/mL. In addition, at hERG, the IC50 lay in the range of 1000 to 2000 nM. Further, the Ki on Cyclophilin A (CypA) (setting [3]) came to 10 nM; on CypD (Table S3, fluorescence polarization, biotinylated-CsA probe, read-out: Ki (nM) CypD), 38.1 nM.
For the compound `CC[C@@H]1NC(=O)[C@H]([C@H](O)[C@H](C)CC=CCCC[n+]2ccc(N3CCCC3)c3ccc(C(F)(F)F)cc32)N(C)C(=O)[C@H](C(C)C)N(C)C(=O)[C@H](CC(C)C)N(C)C(=O)[C@H](CC(C)C)N(C)C(=O)[C@@H](C)NC(=O)[C@H](C)NC(=O)[C@H](CC(C)C)N(C)C(=O)[C@H](C(C)C)NC(=O)[C@H](CC(C)C)N(C)C(=O)CN(C)C1=O` [JP1-140], the Ki at CypD (Table S7, focused SAR set, read-out: CypD Ki) turned out to be 76 ± 8 nM.
Regarding `CC[C@@H]1NC(=O)[C@H]([C@H](O)[C@H](C)CC=CCCC[n+]2ccc(N3CCCC3)c3ccccc32)N(C)C(=O)[C@H](C(C)C)N(C)C(=O)[C@H](CC(C)C)N(C)C(=O)[C@H](CC(C)C)N(C)C(=O)[C@@H](C)NC(=O)[C@H](C)NC(=O)[C@H](CC(C)C)N(C)C(=O)[C@H](C(C)C)NC(=O)[C@H](CC(C)C)N(C)C(=O)CN(C)C1=O` [JP1-159], the Ki on Cyclophilin A (CypA) (Table S7, focused SAR set, read-out: CypA Ki) worked out at 104 nM.
`CC[C@@H]1NC(=O)[C@H]([C@H](O)[C@H](C)C/C=C/CCC[n+]2cccc3ccccc32)N(C)C(=O)[C@H](C(C)C)N(C)C(=O)[C@H](CC(C)C)N(C)C(=O)[C@H](CC(C)C)N(C)C(=O)[C@@H](C)NC(=O)[C@H](C)NC(=O)[C@H](CC(C)C)N(C)C(=O)[C@H](C(C)C)NC(=O)[C@H](CC(C)C)N(C)C(=O)CN(C)C1=O` [JW47, reference compound]: in series [2] (plasma, Plasma (ng/mL)), the level at 4 h was 4900 ng/mL.
For the compound `CC[C@@H]1NC(=O)[C@H]([C@H](O)[C@H](C)CC=CCCC[n+]2ccc(OCCc3ccccc3)c3ccccc32)N(C)C(=O)[C@H](C(C)C)N(C)C(=O)[C@H](CC(C)C)N(C)C(=O)[C@H](CC(C)C)N(C)C(=O)[C@@H](C)NC(=O)[C@H](C)NC(=O)[C@H](CC(C)C)N(C)C(=O)[C@H](C(C)C)NC(=O)[C@H](CC(C)C)N(C)C(=O)CN(C)C1=O` [TWH30], the CRC inhibition % in series [1] stood at 27.89%. Besides, on Cyclophilin A (CypA) (setting [4]), the inhibition constant Ki was 267 ± 16 nM.
In the same order, the values of `CC[C@@H]1NC(=O)[C@H]([C@H](O)[C@H](C)CC=CCCCOc2cc[n+](CCCc3ccccc3)c3ccccc23)N(C)C(=O)[C@H](C(C)C)N(C)C(=O)[C@H](CC(C)C)N(C)C(=O)[C@H](CC(C)C)N(C)C(=O)[C@@H](C)NC(=O)[C@H](C)NC(=O)[C@H](CC(C)C)N(C)C(=O)[C@H](C(C)C)NC(=O)[C@H](CC(C)C)N(C)C(=O)CN(C)C1=O` [TWH43] are 16.28% and 218 ± 57 nM.
`CC[C@@H]1NC(=O)[C@H]([C@H](O)[C@H](C)CC=CCCC[n+]2ccc(OCCCc3ccc(OC)cc3)c3ccccc32)N(C)C(=O)[C@H](C(C)C)N(C)C(=O)[C@H](CC(C)C)N(C)C(=O)[C@H](CC(C)C)N(C)C(=O)[C@@H](C)NC(=O)[C@H](C)NC(=O)[C@H](CC(C)C)N(C)C(=O)[C@H](C(C)C)NC(=O)[C@H](CC(C)C)N(C)C(=O)CN(C)C1=O` [TWH44]: the CRC inhibition % in series [1] stood at 16.95%. In addition, the Ki at Cyclophilin A (CypA) (setting [4]) was 158 ± 17 nM.
With `CC[C@@H]1NC(=O)[C@H]([C@H](O)[C@H](C)C/C=C/CCCOc2cc[n+](CCc3ccccc3)c3ccccc23)N(C)C(=O)[C@H](C(C)C)N(C)C(=O)[C@H](CC(C)C)N(C)C(=O)[C@H](CC(C)C)N(C)C(=O)[C@@H](C)NC(=O)[C@H](C)NC(=O)[C@H](CC(C)C)N(C)C(=O)[C@H](C(C)C)NC(=O)[C@H](CC(C)C)N(C)C(=O)CN(C)C1=O` [TWH46], at Cyclophilin A (CypA) (setting [4]), the Ki was found to be 265 ± 111 nM.
Consider `CC[C@@H]1NC(=O)[C@H]([C@H](O)[C@H](C)CC=CCCC[n+]2ccc(OCc3ccccc3)c3ccccc32)N(C)C(=O)[C@H](C(C)C)N(C)C(=O)[C@H](CC(C)C)N(C)C(=O)[C@H](CC(C)C)N(C)C(=O)[C@@H](C)NC(=O)[C@H](C)NC(=O)[C@H](CC(C)C)N(C)C(=O)[C@H](C(C)C)NC(=O)[C@H](CC(C)C)N(C)C(=O)CN(C)C1=O` [TWH53], for which the CRC inhibition % in series [1] is given as 18.46%. In addition, the Ki at Cyclophilin A (CypA) (setting [4]) came out at 158 ± 43 nM.
With `CC[C@@H]1NC(=O)[C@H]([C@H](O)[C@H](C)CC=CCCC[n+]2ccc(OCCOc3ccccc3)c3ccccc32)N(C)C(=O)[C@H](C(C)C)N(C)C(=O)[C@H](CC(C)C)N(C)C(=O)[C@H](CC(C)C)N(C)C(=O)[C@@H](C)NC(=O)[C@H](C)NC(=O)[C@H](CC(C)C)N(C)C(=O)[C@H](C(C)C)NC(=O)[C@H](CC(C)C)N(C)C(=O)CN(C)C1=O` [TWH68], the CRC inhibition % in series [1] worked out at 17.71%. Further, the Ki at Cyclophilin A (CypA) (setting [4]) was 467 ± 85 nM.
